The target of one assay is Carbonic anhydrase 1 (Homo sapiens, UniProt P00915). As to the kind of experiment: Inhibition of human recombinant carbonic anhydrase 1 assessed as CO2 hydration preincubated for 15 mins prior to testing measured for 10 to 100 secs by phenol red dye-based stopped-flow assay.
The target in another assay is Carbonic anhydrase 2 (Homo sapiens, UniProt P00918). Description: Inhibition of human recombinant carbonic anhydrase 2 assessed as CO2 hydration preincubated for 15 mins prior to testing measured for 10 to 100 secs by phenol red dye-based stopped-flow assay.
The next assay concerns the target Carbonic anhydrase 7 (Homo sapiens, UniProt P43166). As to the kind of experiment: Inhibition of human recombinant carbonic anhydrase 7 assessed as CO2 hydration preincubated for 15 mins prior to testing measured for 10 to 100 secs by phenol red dye-based stopped-flow assay.
A further assay has as its target Carbonic anhydrase 9 (Homo sapiens, UniProt Q16790). As to the kind of experiment: Inhibition of human recombinant carbonic anhydrase 9 assessed as CO2 hydration preincubated for 15 mins prior to testing measured for 10 to 100 secs by phenol red dye-based stopped-flow assay.
Assay [1] deals with Mus musculus. Description: Anticonvulsant activity in Swiss albino mouse assessed as protection against maximal electroshock-induced seizures at 30 mg/kg, ip administered 0.5 hrs prior to 50 mA current induction relative to control. The format is functional. (In the maximal electroshock model the usual endpoint is tonic extension of the hind limbs.)
Assay [2] relates to Mus musculus. As to the kind of experiment: Anticonvulsant activity in Swiss albino mouse assessed as protection against maximal electroshock-induced seizures at 30 mg/kg, ip administered 3 hrs prior to 50 mA current induction relative to control. The format is functional.
Assay [3] deals with Mus musculus. Description: Anticonvulsant activity in Swiss albino mouse assessed as protection against maximal electroshock-induced seizures at 100 mg/kg, ip administered 0.5 hrs prior to 50 mA current induction relative to control. The format is functional.
Assay [4] deals with Mus musculus. Description: Anticonvulsant activity in Swiss albino mouse assessed as protection against maximal electroshock-induced seizures at 100 mg/kg, ip administered 3 hrs prior to 50 mA current induction relative to control. The format is functional.
Assay [5] relates to Mus musculus. As to the kind of experiment: Anticonvulsant activity in Swiss albino mouse assessed as protection against subcutaneous PTZ-induced seizures at 30 mg/kg, ip administered 0.5 hrs prior to PTZ-induction relative to control. The format is functional.
For assay [6], the system named is Mus musculus. Description: Anticonvulsant activity in Swiss albino mouse assessed as protection against subcutaneous PTZ-induced seizures at 30 mg/kg, ip administered 3 hrs prior to PTZ-induction relative to control. The format is functional.
Assay [7] deals with Mus musculus. As to the kind of experiment: Anticonvulsant activity in Swiss albino mouse assessed as protection against subcutaneous PTZ-induced seizures at 100 mg/kg, ip administered 0.5 hrs prior to PTZ-induction relative to control. The format is functional.
Assay [8] deals with Mus musculus. As to the kind of experiment: Anticonvulsant activity in Swiss albino mouse assessed as protection against subcutaneous PTZ-induced seizures at 100 mg/kg, ip administered 3 hrs prior to PTZ-induction relative to control. The format is functional.
For assay [9], the system named is Mus musculus. Description: Anticonvulsant activity in Swiss albino mouse assessed as protection against maximal electroshock-induced seizures at 30 mg/kg, ip administered 3 hrs prior to 50 mA current induction relative to control.
In assay [10] the test system is Mus musculus. As to the kind of experiment: Anticonvulsant activity in Swiss albino mouse assessed as protection against maximal electroshock-induced seizures at 100 mg/kg, ip administered 3 hrs prior to 50 mA current induction relative to control.
Assay [11] relates to Mus musculus. As to the kind of experiment: Anticonvulsant activity in Swiss albino mouse assessed as protection against maximal electroshock-induced seizures at 30 mg/kg, ip administered 0.5 hrs prior to 50 mA current induction relative to control.
Assay [12] has as its system Mus musculus. As to the kind of experiment: Anticonvulsant activity in Swiss albino mouse assessed as protection against maximal electroshock-induced seizures at 100 mg/kg, ip administered 0.5 hrs prior to 50 mA current induction relative to control.

Chain of Carbonic anhydrase 7 (P43166 whole entry): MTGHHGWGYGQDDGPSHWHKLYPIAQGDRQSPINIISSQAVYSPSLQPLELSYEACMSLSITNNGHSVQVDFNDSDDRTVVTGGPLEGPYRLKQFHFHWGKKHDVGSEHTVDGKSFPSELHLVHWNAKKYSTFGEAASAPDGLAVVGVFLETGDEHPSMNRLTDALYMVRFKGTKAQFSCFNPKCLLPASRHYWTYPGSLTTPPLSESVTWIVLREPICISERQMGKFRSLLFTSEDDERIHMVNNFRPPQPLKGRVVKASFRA
Chain of Carbonic anhydrase 1 (P00915 whole entry): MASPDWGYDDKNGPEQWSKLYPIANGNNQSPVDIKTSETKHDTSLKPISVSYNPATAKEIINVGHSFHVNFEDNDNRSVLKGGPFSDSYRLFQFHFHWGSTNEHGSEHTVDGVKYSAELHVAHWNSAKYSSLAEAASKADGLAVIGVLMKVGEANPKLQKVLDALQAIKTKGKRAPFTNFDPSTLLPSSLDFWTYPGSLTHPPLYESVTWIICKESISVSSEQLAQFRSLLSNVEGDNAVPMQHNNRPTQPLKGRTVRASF

Take `NS(=O)(=O)c1ccc(C(=O)N/N=C/c2ccc(N3CCN(C(=O)OCc4ccccc4)CC3)cc2)cc1`: the Ki on Carbonic anhydrase 1 came out at 9640 nM; on Carbonic anhydrase 2, 1450 nM; at Carbonic anhydrase 7, 121 nM; at Carbonic anhydrase 9, 1900 nM.
As for `NS(=O)(=O)c1ccc(N/N=C/c2ccc(N3CCN(c4ccc(F)cc4)CC3)cc2)cc1`, the Ki at Carbonic anhydrase 1 is 2380 nM; on Carbonic anhydrase 2, 559 nM; on Carbonic anhydrase 7, 49.6 nM; on Carbonic anhydrase 9, 1270 nM.
As for `NS(=O)(=O)c1ccc(C(=O)N/N=C/c2ccc(N3CCN(C(=O)c4ccco4)CC3)cc2)cc1`, the inhibitory constant (Ki) amounted to 9490 nM on Carbonic anhydrase 1, 686 nM at Carbonic anhydrase 2, 78.8 nM on Carbonic anhydrase 7 and 30.4 nM on Carbonic anhydrase 9.
Consider `NS(=O)(=O)c1ccc(N/N=C/c2ccc(N3CCN(C(=O)c4ccccc4)CC3)cc2)cc1`, for which the Ki at Carbonic anhydrase 1 was more than 10000 nM; at Carbonic anhydrase 2, 2790 nM; on Carbonic anhydrase 7, 127 nM; at Carbonic anhydrase 9 it was 2490 nM.
As to `NS(=O)(=O)c1ccc(C(=O)N/N=C/c2ccc(N3CCN(c4ncccn4)CC3)cc2)cc1`, the Ki stood at 2060 nM at Carbonic anhydrase 1, 963 nM on Carbonic anhydrase 2, 132 nM on Carbonic anhydrase 7 and 1840 nM on Carbonic anhydrase 9.
`NS(=O)(=O)c1ccc(N/N=C/c2ccc(N3CCN(c4ccccn4)CC3)cc2)cc1`: the Ki at Carbonic anhydrase 1 was more than 10000 nM; on Carbonic anhydrase 2 it was 4590 nM; on Carbonic anhydrase 7 it was 135 nM; at Carbonic anhydrase 9 it was 235 nM.
Take `NS(=O)(=O)c1ccc(N/N=C/c2ccc(N3CCN(C(=O)c4ccco4)CC3)cc2)cc1`: the Ki on Carbonic anhydrase 1 was 322 nM; on Carbonic anhydrase 2 it was 30.8 nM; at Carbonic anhydrase 7, 6.2 nM; at Carbonic anhydrase 9, 1790 nM. Also, the Activity amounted to 50% in the assay with Mus musculus [1]; 50% with Mus musculus [2]; 83% with Mus musculus [3]; 50% with Mus musculus [4]; 33% in the assay on Mus musculus [5]; 33% with Mus musculus [6]. The Activity in the assay on Mus musculus [7] is 67%; in the assay on Mus musculus [8], 50%; in the assay with Mus musculus [9], 50%; with Mus musculus [10], 50%; with Mus musculus [11], 50%; in the assay on Mus musculus [12] it was 83%.
For `NS(=O)(=O)c1ccc(C(=O)N/N=C/c2ccc(N3CCN(c4ccccn4)CC3)cc2)cc1`, the Ki at Carbonic anhydrase 1 was more than 10000 nM; at Carbonic anhydrase 2 it was 4560 nM; on Carbonic anhydrase 7, 126 nM; at Carbonic anhydrase 9, 152 nM.
In the case of `NS(=O)(=O)c1ccc(C(=O)N/N=C/c2ccc(N3CCN(c4ccc(F)cc4)CC3)cc2)cc1`, the Ki was found to be 5800 nM on Carbonic anhydrase 1, 822 nM at Carbonic anhydrase 2, 147 nM on Carbonic anhydrase 7 and 1960 nM on Carbonic anhydrase 9.
With `NS(=O)(=O)c1ccc(N/N=C/c2ccc(N3CCN(c4ccccc4)CC3)cc2)cc1`, the Ki on Carbonic anhydrase 1 is 7860 nM; on Carbonic anhydrase 2, 888 nM; at Carbonic anhydrase 7, 98.4 nM; at Carbonic anhydrase 9 it was 1240 nM.
Take `NS(=O)(=O)c1ccc(N/N=C/c2ccc(N3CCN(C(=O)OCc4ccccc4)CC3)cc2)cc1`: the Ki on Carbonic anhydrase 1 came out at 920 nM; on Carbonic anhydrase 2 it was 93.9 nM; on Carbonic anhydrase 7, 11.4 nM; at Carbonic anhydrase 9, 1630 nM. For the same compound, the Activity is recorded as 50% in the assay on Mus musculus [1]; 33% with Mus musculus [2]; 50% with Mus musculus [3]; 67% in the assay with Mus musculus [4]; 50% in the assay on Mus musculus [5]; 67% in the assay on Mus musculus [6]. The Activity in the assay on Mus musculus [7] is given as 67%; in the assay on Mus musculus [8] it was 33%; in the assay on Mus musculus [9], 33%; in the assay on Mus musculus [10], 67%; in the assay on Mus musculus [11] it was 50%; in the assay with Mus musculus [12], 50%.
As to `NS(=O)(=O)c1ccc(C(=O)N/N=C/c2ccc(N3CCN(Cc4ccccc4)CC3)cc2)cc1`, the inhibitory constant (Ki) on Carbonic anhydrase 1 came to 7100 nM; on Carbonic anhydrase 2 it was 414 nM; on Carbonic anhydrase 7, 41.5 nM; at Carbonic anhydrase 9, 163 nM.
Turning to `Cc1ccc(N2CCN(c3ccc(/C=N/Nc4ccc(S(N)(=O)=O)cc4)cc3)CC2)c(C)c1`, the Ki stood at 4110 nM on Carbonic anhydrase 1, 553 nM at Carbonic anhydrase 2, 72 nM on Carbonic anhydrase 7 and 1740 nM at Carbonic anhydrase 9.
`NS(=O)(=O)c1ccc(N/N=C/c2ccc(N3CCN(c4ccc(C(F)(F)F)cc4)CC3)cc2)cc1`: the Ki on Carbonic anhydrase 1 turned out to be 9470 nM; on Carbonic anhydrase 2, 7520 nM; on Carbonic anhydrase 7 it was 118 nM; at Carbonic anhydrase 9, 1930 nM.
For the compound `NS(=O)(=O)c1ccc(C(=O)N/N=C/c2ccc(N3CCN(c4ccc(C(F)(F)F)cc4)CC3)cc2)cc1`, the Ki at Carbonic anhydrase 1 stood at 8160 nM; on Carbonic anhydrase 2, 556 nM; at Carbonic anhydrase 7, 148 nM; on Carbonic anhydrase 9 it was 1850 nM.
`NS(=O)(=O)c1ccc(N/N=C/c2ccc(N3CCN(c4ncccn4)CC3)cc2)cc1`: the Ki on Carbonic anhydrase 1 was more than 10000 nM; on Carbonic anhydrase 2, 8400 nM; on Carbonic anhydrase 7, 607 nM; on Carbonic anhydrase 9, 2230 nM.
Take `NS(=O)(=O)c1ccc(C(=O)N/N=C/c2ccc(N3CCN(c4ccccc4)CC3)cc2)cc1`: the Ki is more than 10000 nM on Carbonic anhydrase 1, 4130 nM on Carbonic anhydrase 2, 181 nM on Carbonic anhydrase 7 and 276 nM on Carbonic anhydrase 9.
Turning to `NS(=O)(=O)c1ccc(C(=O)N/N=C/c2ccc(N3CCN(C(=O)c4ccccc4)CC3)cc2)cc1`, the Ki on Carbonic anhydrase 1 came out at 5500 nM; at Carbonic anhydrase 2, 308 nM; at Carbonic anhydrase 7, 94.7 nM; on Carbonic anhydrase 9, 1050 nM.
As to `NS(=O)(=O)c1ccc(C(=O)N/N=C/c2ccc(N3CCN(Cc4ccc5c(c4)OCO5)CC3)cc2)cc1`, the Ki amounted to 8370 nM on Carbonic anhydrase 1, 962 nM on Carbonic anhydrase 2, 751 nM on Carbonic anhydrase 7 and 95.2 nM on Carbonic anhydrase 9.

Broadly, the Ki is the equilibrium dissociation constant of an inhibitor or competing ligand from its target.
